Data from article PMC4383039 (Science translational medicine, 2015).
Converted amounts (≈) assume the structure as drawn. Where two headings read alike, the source gives them in different places. Marks after values point to notes of the source that are not given here.

Columns and labels:
[1] = test system: mycolates; assay type: cell-based, Mycobacterium tuberculosis
[2] = target: InhA-NADH complex (Mycobacterium tuberculosis, UniProt P9WGR1); test: biochemical; assay type: binding
[3] = target: apo-InhA, InhA-NAD+ complex (Mycobacterium tuberculosis, UniProt P9WGR1); assay type: binding
Chain of apo-InhA, InhA-NAD+ complex (P9WGR1 whole entry, looked up, one chain of several): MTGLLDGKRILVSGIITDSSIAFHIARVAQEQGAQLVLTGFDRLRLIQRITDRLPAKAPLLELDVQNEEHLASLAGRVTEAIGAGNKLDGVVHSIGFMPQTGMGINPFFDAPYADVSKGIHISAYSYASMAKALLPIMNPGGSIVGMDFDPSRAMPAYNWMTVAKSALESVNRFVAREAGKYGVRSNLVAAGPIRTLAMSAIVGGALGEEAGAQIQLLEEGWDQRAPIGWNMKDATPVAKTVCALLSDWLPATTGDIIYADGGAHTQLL

[4] = target: InhA with cofactor (NADH or NAD+) (Mycobacterium tuberculosis, UniProt P9WGR1); assay type: binding
Chain of InhA with cofactor (NADH or NAD+) (P9WGR1 whole entry, looked up): as the sequence (P9WGR1 whole entry, looked up, one chain of several) above

[5] = test system: Mtb H37Rv; test: microbe, parasite or virus in culture; assay type: cell-based, Mycobacterium tuberculosis; conditions: for MIC50: Mycobacterium tuberculosis, H37RV
[6] = target: T1, InhA (Mycobacterium tuberculosis, UniProt P9WGR1); test: biochemical
T1 sequence (P9WGR1 whole entry, looked up): as the sequence (P9WGR1 whole entry, looked up, one chain of several) above

[7] = test system: Mtb H37Rv; conditions: cited from earlier work
[8] = target: T1, InhA; conditions: read-out: InhA IC50; cited from earlier work
[9] = test system: in vitro replicating Mtb; assay type: cell-based, Mycobacterium tuberculosis
[10] = test system: Mtb H37Rv; parameters: species or system BALB/c mice; conditions: mouse, in vivo

Chain of InhA-NADH complex (P9WGR1 whole entry, looked up, one chain of several): as above

CC(C)Cc1cc(O)c(-c2ccccc2)c(=O)[nH]1 [NITD-529, 4-hydroxy-6-isobutyl-3-phenylpyridin-2(1H)-one]
effect on mycolates [1]: dose-dependent inhibition of mycolates
ITC (+NADH) N [2]: 0.97 ± 0.23
Kd [2]: 25 ± 7 µM
ITC (+NADH) ΔH ([2]; 25°C): 13.1 ± 4.202 kcal/mol
ITC (+NADH) ΔS ([2]; 25°C): -0.0229 kcal/mol
ITC binding to InhA [3]: no binding was observed
Thermaflor assay Tm, E-NAD+-I [4]: 50.3 °C
Thermaflor assay Tm, E-NADH-I [4]: 54.7 °C
Thermaflor assay ΔTm [4]: 4.4 °C
Mtb MIC50 [5]: 1.54 µM
MIC50 ([5]; 120 h, read-out: Mtb MIC50): 1.5 µM (≈ 0.365 µg/mL)
MIC50 ([5]; read-out: Compound MIC50): 1.54 µM (≈ 0.375 µg/mL)
IC50 [6]: 9.6 ± 0.7 µM

O=[N+]([O-])c1cn2c(n1)OC[C@@H](OCc1ccc(OC(F)(F)F)cc1)C2 [PA-824]
MIC50 [7]: 0.4 µM (≈ 0.144 µg/mL)

c1ccc(Oc2ccccc2)cc1 [PT70]
Mtb MIC50 [7]: 11 ^a μM
IC50 [8]: < 0.05 µM
Thermaflor assay Tm, E-NAD+-I [4]: 66.7 °C
Thermaflor assay Tm, E-NADH-I [4]: 60.1 °C
Thermaflor assay ΔTm [4]: -6.6 °C

COc1nc2ccc(Br)cc2cc1[C@@H](c1ccccc1)[C@@](O)(CCN(C)C)c1cccc2ccccc12 [bedaquiline]
MIC50 [7]: 0.05 µM (≈ 0.0278 µg/mL)

CCc1cc(C(N)=S)ccn1 [ethionamide]
MIC50 ([5]; read-out: Compound MIC50): 1.66 µM (≈ 0.276 µg/mL)

NNC(=O)c1ccncc1 [isoniazid]
MIC50 [7]: 0.33 µM (≈ 0.0453 µg/mL)
MIC50 ([5]; read-out: Compound MIC50): 0.25 µM (≈ 0.0343 µg/mL)
concentration showing rapid killing (in vitro cidal-activity profile) [9]: 0.5 µM
efficacy compared with reference drugs / NITD-916 [10]: significantly more potent than NITD-916

CO[C@H]1/C=C/O[C@@]2(C)Oc3c(C)c(O)c4c(O)c(c(/C=N/N5CCN(C)CC5)c(O)c4c3C2=O)NC(=O)/C(C)=C\C=C\[C@H](C)[C@H](O)[C@@H](C)[C@@H](O)[C@@H](C)[C@H](OC(C)=O)[C@@H]1C [rifampicin]
efficacy compared with reference drugs / NITD-916 [10]: significantly more potent than NITD-916

[H]/N=C(/N)N[C@H]1[C@H](O)[C@@H](O)[C@H](O[C@@H]2O[C@@H](C)[C@](O)(C=O)[C@H]2O[C@@H]2O[C@@H](CO)[C@H](O)[C@@H](O)[C@@H]2NC)[C@@H](N/C(N)=N\[H])[C@@H]1O [streptomycin]
MIC50 ([5]; read-out: Compound MIC50): 0.08 µM (≈ 0.0465 µg/mL)
